Data taken from patent publication US5710126A, “T cell epitopes of ryegrass pollen allergen” (ImmuLogic Pharmaceutical Corporation, priority 1995, dated 1998).

Tested on: T cell lines from grass-allergic patients primed in vitro with affinity purified Lol p V
Test: T cell proliferation (tritiated thymidine uptake) of Lol p V-primed T cell lines restimulated with peptides or proteins
Format: cell-based, human
Details: for mean T cell stimulation index (S.I.): mean of positive responses (S.I. at least 2), FIGS. 4 and 5
From the text: As discussed in Example 2, human T cell stimulating activity can be tested by culturing T cells obtained from an individual sensitive to Lol p V allergen, (i.e., an individual who has an IgE mediated immune response to Lol p V allergen) with a peptide derived from the allergen and determining whether proliferation of T cells occurs in response to the peptide as measured, e.g., by cellular uptake of tritiated thymidine. Stimulation indices for responses by T cells to peptides can be calculated as the maximum CPM in response to a peptide divided by the control CPM. A stimulation index (S.I.) equal to or greater than two times the background level is considered "positive". Positive results are used to calculate the mean stimulation index for each peptide for the group of patients tested. In FIGS. 4 and 5 the mean T cell stimulation index is indicated above the bar. Preferred peptides of this invention comprise at least one T cell epitope and have a mean T cell stimulation index of greater than or equal to 2.0. A peptide having a mean T cell stimulation index of greater than or equal to 2.0 in a significant number of ryegrass pollen sensitive patients tested is considered useful as a therapeutic agent. Preferred peptides have a mean T cell stimulation index of at least 2.5, more preferably at least 3.0, more preferably at least 3.5, more preferably at least 4.0, more preferably at least 5.0 and most preferably at least about 6. For example, peptides of the invention having a mean T cell stimulation index of at least 5, as indicated by data shown in FIGS. 4 and 5, include peptides LPIX-4 (SEQ ID NO:6), LPIX-5 (SEQ ID NO:7), LPIX-8 (SEQ ID NO:10) LPIX-17 (SEQ ID NO:19) and LPIX-19 (SEQ ID NO:21).
In addition, preferred peptides have a positivity index (P.I.) of at least about 60, more preferably about 100, more preferably at least about 200 and most preferably at least about 300. The positivity index for a peptide is determined by multiplying the mean T cell stimulation index by the percent of individuals, in a population of individuals sensitive to ryegrass pollen (e.g., preferably a population of at least 15 individuals,more preferably a population of at least 30 individuals or more), who have a T cell stimulation index to such peptide of at least 2.0. Thus, the positivity index represents both the strength of a T cell response to a peptide (S.I.) and the frequency of a T cell response to a peptide in a population of individuals sensitive to ryegrass pollen. In FIG. 4, the bar represents the positivity index and the percent of individuals tested who have a T cell stimulation index of at least 2.0 to that peptide are indicated in parenthesis above each bar (the mean T cell stimulation index is also indicated above each bar). […] Lol p V peptides having a positivity index of at least about 100 and a mean T cell stimulation index of at least about 4 include: LPIX-4 (SEQ ID NO:6), LPIX-5 (SEQ ID NO:7), and LPIX-17 (SEQ ID NO:19).
In FIG. 5, the bar represents the cumulative rank of the peptide response in the group of patients tested as described in Example 2. To determine the cumulative rank, the 5 peptides with the highest S.I. in each individual were determined and assigned a numerical rank in descending order, with 5 representing the strongest response. The ranks for each peptide were then summed for the entire group of patients tested to determine the cumulative rank for the peptide. Above each bar is the mean S.I. for each peptide and the percent of positive responses (in parenthesis) with an S.I. of at least 2 to the peptide in the group of patients tested.
This amount of priming antigen was determined to be optimal for the activation of T cells from most grass-allergic patients. Viable cells were purified by LSM centrifugation and cultured in complete medium, supplemented with 5 units recombinant human IL-2/ml and 5 units recombinant human IL-4/ml for up to 3 weeks until the desired cell number were achieved. […]

Substance | positivity index (P.I.; % of patients responding multiplied by mean S.I.) (19 patients, FIG. 4) | mean T cell stimulation index (S.I.) (19 patients) | further results
LPIX-17: synthetic overlapping peptide derived from Lol p V, sequence shown in FIG. 2 (ATAANAAPTNDKFTVFESAF) | at least 100 | – | –
LPIX-4: synthetic overlapping peptide derived from Lol p V, sequence shown in FIG. 2 (EQKLLEDVNAGFKAAVAAAA) | at least 100 | – | –
LPIX-19: synthetic overlapping peptide derived from Lol p V, sequence shown in FIG. 2 (NKALNECTGGAYETYKFIPS) | – | at least 5 | –
LPIX-5: synthetic overlapping peptide derived from Lol p V, sequence shown in FIG. 2 (GFKAAVAAAANAPPADKFKI) | – | – | percent of positive responses (patients with S.I. of at least 2.0) (group of 19 patients tested, FIG. 4): 26.3%
LPIX-20: synthetic overlapping peptide derived from Lol p V, sequence shown in FIG. 2 (AYETYKFIPSLEAAVKQAYA) | – | – | ranked sum (cumulative rank of the peptide response) (19 patients, 5 highest S.I. per individual ranked and summed, FIG. 5): highest ranked sum
LPIX-8: synthetic overlapping peptide derived from Lol p V, sequence shown in FIG. 2 (GLLATSAAKAPGLIPKLDTA) | – | at least 5 | –
